According to patent US10800792B2, “Inhibitors of Bruton's tyrosine kinase and method of their use” (JANSSEN PHARMACEUTICA NV, priority 2015, dated 2020):
Where two headings read alike, the source gives them in different places.

Molecular target: unphosphorylated-BTK kinase domain (UP-BTK), GST-tagged human BTK (389-659aa) (Homo sapiens (Human), UniProt Q06187)
Assay: BTK kinase Lanthascreen binding assay
Settings: pIC50 = negative log of the IC50 in molar; for IC50: read-out: BTK_I_binding pIC50 (converted)
Method: BTK Kinase Lanthascreen Binding Assay:
A BTK kinase lanthascreen binding assay monitors compound binding to unphosphorylated-BTK kinase domain (UP-BTK), by competing with a fluorescent labeled tracer. […] Data were analyzed using Xlfit™ version 5.3 from ID Business Solutions (Guildford), Microsoft Excel add-in. pIC50 refers to the negative log of the IC50 in molar

[1] = 60 minutes incubation, 50 nM Tracer 236
[2] = unphosphorylated-BTK kinase domain, 50 nM Tracer 236, 60 minutes
[3] = Lanthascreen tracer competition, 60 minutes incubation

Sequence of unphosphorylated-BTK kinase domain (UP-BTK), GST-tagged human BTK (389-659aa) (Q06187 389-659): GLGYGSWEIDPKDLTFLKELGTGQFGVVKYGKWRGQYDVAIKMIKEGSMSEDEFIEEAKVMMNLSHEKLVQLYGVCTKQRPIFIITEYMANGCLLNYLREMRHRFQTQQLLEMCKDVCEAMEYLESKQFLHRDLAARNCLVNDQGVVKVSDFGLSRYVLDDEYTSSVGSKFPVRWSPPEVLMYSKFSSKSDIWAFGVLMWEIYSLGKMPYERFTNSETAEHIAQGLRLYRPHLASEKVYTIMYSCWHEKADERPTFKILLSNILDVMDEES

SMILES	BTK_I_binding pIC50 [1]	BTK_I_binding pIC50 [2]	further results
Cc1cc(Oc2cccc(COc3ccccc3C#N)c2)ccc1N1C(=O)Nc2c(C(=O)N[C@@H]3CCCN(C)C3)sc3nccc1c23 (mixture of isomers) [Example 24, (R)-5-(4-(3-((2-Cyanophenoxy)methyl)phenoxy)-2-methylphenyl)-N-(1-methylpiperidin-3-yl)-4-oxo-4,5-dihydro-3H-1-thia-3,5,8-triazaacenaphthylene-2-carboxamide]	7.7	–	–
CCOC(C)(C)C=C(C#N)C(=O)N1CCC[C@@H](NC(=O)c2sc3nccc4c3c2NC(=O)N4c2ccc(Oc3ccccc3)cc2C)C1 (mixture of isomers) [Example 29, (R,EZ)—N-(1-(2-Cyano-4-ethoxy-4-methylpent-2-enoyl)piperidin-3-yl)-5-(2-methyl-4-phenoxyphenyl)-4-oxo-4,5-dihydro-3H-1-thia-3,5,8-triazaacenaphthylene-2-carboxamide]	–	–	IC50 [1]: 50.1 nM
Cc1cc(Oc2ccccc2)ccc1N1C(=O)Nc2c(C(=O)NC3CC[C@@H](C)N(C)C3)sc3nccc1c23 (mixture of isomers) [Example 92, N-(1,6-Dimethylpiperidin-3-yl)-5-(2-methyl-4-phenoxyphenyl)-4-oxo-4,5-dihydro-3H-1-thia-3,5,8-triazaacenaphthylene-2-carboxamide]	6.8	–	–
Cc1cc(Oc2ccccc2)ccc1N1C(=O)Nc2c(C(=O)NC3CC[C@H](C)NC3)sc3nccc1c23 (mixture of isomers) [Example 153, 5-(2-Methyl-4-phenoxyphenyl)-N-((6S)-6-methylpiperidin-3-yl)-4-oxo-4,5-dihydro-3H-1-thia-3,5,8-triazaacenaphthylene-2-carboxamide]	6.8	–	–
Cc1cc(Oc2ccccc2)ccc1N1C(=O)Nc2c(C(=O)NC3CC[C@@H](C)NC3)sc3nccc1c23 (mixture of isomers) [Example 173, 5-(2-Methyl-4-phenoxyphenyl)-N-((6R)-6-methylpiperidin-3-yl)-4-oxo-4,5-dihydro-3H-1-thia-3,5,8-triazaacenaphthylene-2-carboxamide]	–	–	IC50 [1]: 158 nM
CCO/C=C/C(=O)N1CCC[C@@H](NC(=O)c2sc3nccc4c3c2NC(=O)N4c2ccc(Oc3ccccc3)cc2C)C1 (mixture of isomers) [Example 221, (R,E)-N-(1-(3-Ethoxyacryloyl)piperidin-3-yl)-5-(2-methyl-4-phenoxyphenyl)-4-oxo-4,5-dihydro-3H-1-thia-3,5,8-triazaacenaphthylene-2-carboxamide]	6.9	–	–
COC=C(C#N)C(=O)N1CCC[C@@H](NC(=O)c2sc3nccc4c3c2NC(=O)N4c2ccc(Oc3ccccc3)cc2C)C1 (mixture of isomers) [Example 231, (R,EZ)—N-(1-(2-Cyano-3-methoxyacryloyl)piperidin-3-yl)-5-(2-methyl-4-phenoxyphenyl)-4-oxo-4,5-dihydro-3H-1-thia-3,5,8-triazaacenaphthylene-2-carboxamide]	6.8	–	–
Cc1cc(Oc2ccccc2)ccc1N1C(=O)Nc2c(C(=O)N[C@@H]3CCCN(C(=O)C(=CC4CC4)C(F)(F)F)C3)sc3nccc1c23 (mixture of isomers) [Example 313, (R,EZ)—N-(1-(3-Cyclopropyl-2-(trifluoromethyl)acryloyl)piperidin-3-yl)-5-(2-methyl-4-phenoxyphenyl)-4-oxo-4,5-dihydro-3H-1-thia-3,5,8-triazaacenaphthylene-2-carboxamide]	–	5.9	–
C=CC(=O)N1CCC[C@@H](NC(=O)c2sc3nccc4c3c2NC(=O)N4c2cnc(CC(C)C)cc2C)C1 (mixture of isomers) [Example 671, (R)—N-(1-Acryloylpiperidin-3-yl)-5-(6-isobutyl-4-methylpyridin-3-yl)-4-oxo-4,5-dihydro-3H-1-thia-3,5,8-triazaacenaphthylene-2-carboxamide]	–	–	IC50 [3]: 25.1 nM
Cc1cc(Oc2ccccc2)ncc1N1C(=O)Nc2c(C(=O)N[C@@H]3COC[C@@H]3N)sc3nccc1c23 (racemic) [Example 707]	–	–	IC50 [3]: 200 nM
Cc1ccc(Oc2ccccc2)cc1N1C(=O)Nc2c(C(=O)N[C@@H]3CCCN(C(=O)/C(C#N)=C/C4CC4)C3)sc3nccc1c23 (racemic) [Example 875, (E)-N-(1-(2-Cyano-3-cyclopropylacryloyl)piperidin-3-yl)-5-(2-methyl-5-phenoxyphenyl)-4-oxo-4,5-dihydro-3H-1-thia-3,5,8-triazaacenaphthylene-2-carboxamide]	–	–	BTK_I_binding pIC50 [3]: 7.2
O=C(N[C@@H]1CCNC[C@H]1O)c1sc2nccc3c2c1NC(=O)N3c1ccc(Oc2ccccc2)cc1 (relative stereo) [Example 615, N-(trans-3-Hydroxypiperidin-4-yl)-4-oxo-5-(4-phenoxyphenyl)-4,5-dihydro-3H-1-thia-3,5,8-triazaacenaphthylene-2-carboxamide]	–	–	IC50 [3]: 794 nM
CC(C)(C)OC(=O)N1CC[C@@H](NC(=O)c2sc3nccc4c3c2NC(=O)N4c2ccc(Oc3ccccc3)cc2)[C@H](O)C1 (relative stereo) [Example 617, trans-tert-Butyl 3-hydroxy-4-(4-oxo-5-(4-phenoxyphenyl)-4,5-dihydro-3H-1-thia-3,5,8-triazaacenaphthylene-2-carboxamido)piperidine-1-carboxylate]	–	–	IC50 [3]: 1000 nM
O=C(N[C@@H]1CCNC[C@@H]1O)c1sc2nccc3c2c1NC(=O)N3c1ccc(Oc2ccccc2)cc1 (relative stereo) [Example 659, N-(cis-3-Hydroxypiperidin-4-yl)-4-oxo-5-(4-phenoxyphenyl)-4,5-dihydro-3H-1-thia-3,5,8-triazaacenaphthylene-2-carboxamide]	–	–	IC50 [3]: 251 nM
C=CC(=O)N1C[C@H](O)C[C@@H](NC(=O)c2sc3nccc4c3c2NC(=O)N4c2ccc(Oc3ccccc3)cc2C)C1 (single isomer, unassigned) [Example 2, N-((3R,5S)-1-Acryloyl-5-hydroxypiperidin-3-yl)-5-(*S)-(2-methyl-4-phenoxyphenyl)-4-oxo-4,5-dihydro-3H-1-thia-3,5,8-triazaacenaphthylene-2-carboxamide]	8.2	–	–
C=CC(=O)N1CC[C@@H](NC(=O)c2sc3nccc4c3c2NC(=O)N4c2ccc(Oc3ccccc3)cc2C)C1 (single isomer, unassigned) [Example 5, (R)—N-(1-Acryloylpyrrolidin-3-yl)-5-(*S)-(2-methyl-4-phenoxyphenyl)-4-oxo-4,5-dihydro-3H-1-thia-3,5,8-triazaacenaphthylene-2-carboxamide]	8.1	–	–

Now from value to compound, other results behind:

BTK_I_binding pIC50 [1]	BTK_I_binding pIC50 [2]	SMILES	further results
7.2	–	COCCNC(C)(C)C=C(C#N)C(=O)N1CCC[C@@H](NC(=O)c2sc3nccc4c3c2NC(=O)N4c2ccc(Oc3ccccc3)cc2C)C1 (mixture of isomers) [Example 234, (R,EZ)—N-(1-(2-Cyano-4-((2-methoxyethyl)amino)-4-methylpent-2-enoyl)piperidin-3-yl)-5-(2-methyl-4-phenoxyphenyl)-4-oxo-4,5-dihydro-3H-1-thia-3,5,8-triazaacenaphthylene-2-carboxamide]	–
–	6.5	Cc1cc(Oc2ccccc2)ccc1N1C(=O)Nc2c(C(=O)N[C@@H]3CCCN(C(=O)C(Cl)=CC4CC4)C3)sc3nccc1c23 (mixture of isomers) [Example 402, (R,EZ)—N-(1-(2-Chloro-3-cyclopropylacryloyl)piperidin-3-yl)-5-(2-methyl-4-phenoxyphenyl)-4-oxo-4,5-dihydro-3H-1-thia-3,5,8-triazaacenaphthylene-2-carboxamide]	–
–	7.0	CO[C@@H]1CNC[C@H](NC(=O)c2sc3nccc4c3c2NC(=O)N4c2ccc(Oc3ccccc3)cc2C)C1 (relative stereo) [Example 467, N-((3R,5S)-5-Methoxypiperidin-3-yl)-5-(*S)-(2-methyl-4-phenoxyphenyl)-4-oxo-4,5-dihydro-3H-1-thia-3,5,8-triazaacenaphthylene-2-carboxamide]	–
–	5.9	CO[C@@H]1CNC[C@H](NC(=O)c2sc3nccc4c3c2NC(=O)N4c2ccc(Oc3ccccc3)cc2C)C1 (relative stereo) [Example 468, N-((3R,5S)-5-Methoxypiperidin-3-yl)-5-(*R)-(2-methyl-4-phenoxyphenyl)-4-oxo-4,5-dihydro-3H-1-thia-3,5,8-triazaacenaphthylene-2-carboxamide]	–
–	7.6	C=CC(=O)N1C[C@@H](O)[C@@H](NC(=O)c2sc3nccc4c3c2NC(=O)N4c2ccc(Oc3ccccc3)cc2C)C1 (relative stereo) [Example 489, N-((3S,4R)-1-Acryloyl-4-hydroxypyrrolidin-3-yl)-5-(*S)-(2-methyl-4-phenoxyphenyl)-4-oxo-4,5-dihydro-3H-1-thia-3,5,8-triazaacenaphthylene-2-carboxamide]	–
–	7.9	C=CC(=O)N1C[C@H](F)C[C@@H](NC(=O)c2sc3nccc4c3c2NC(=O)N4c2ccc(Oc3ccccc3)cc2C)C1 (relative stereo) [Example 499, N-((3R,5R)-1-Acryloyl-5-fluoropiperidin-3-yl)-5-(*S)-(2-methyl-4-phenoxyphenyl)-4-oxo-4,5-dihydro-3H-1-thia-3,5,8-triazaacenaphthylene-2-carboxamide]	–
–	7.5	C=CC(=O)N1C[C@H](NC(=O)c2sc3nccc4c3c2NC(=O)N4c2ccc(Oc3ccccc3)cc2C)[C@@H](O)C1 (relative stereo) [Example 523, N-((3S,4S)-1-Acryloyl-4-hydroxypyrrolidin-3-yl)-5-(*S)-(2-methyl-4-phenoxyphenyl)-4-oxo-4,5-dihydro-3H-1-thia-3,5,8-triazaacenaphthylene-2-carboxamide]	–
